16 compounds from PubChem BioAssay (NCI) can be followed below.

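Test compounds were applied to cells in 96-well plates for 48 hours at 5 doses. GI50 is the concentration that inhibits growth by half. TGI denotes the concentration required for complete inhibition of growth.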

Test systems include COLO 205 colon; UACC-62 melanoma; SW-620 colon; NCI-H226 lung; NCI-H522 lung; HOP-92 NSCLC; HCT-15 colon; LOX IMVI melanoma; MDA-MB-231 breast; T-47D breast.
Assay in all cases: NCI anticancer screen, dose series, 48 h

Turning to `CCCCCCCCCCCCCC(=O)CSCCNC(=O)CCNC(=O)[C@@H](O)C(C)(C)COP(=O)(O)OP(=O)(O)OCC1OC(n2cnc3c(N)ncnc32)C(O)C1OP(=O)(O)O` (some centres undefined), the TGI stood at 29.4 µM with COLO 205 colon; 29.5 µM in the test with UACC-62 melanoma; 55.5 µM with SW-620 colon; 35.7 µM in the test with NCI-H226 lung; 25.5 µM with NCI-H522 lung; 24.5 µM in the test with HOP-92 NSCLC. Further, the TGI with HCT-15 colon was 42.7 µM; in the test on LOX IMVI melanoma, 37.2 µM.

On to `CN(C)CCNC(=O)c1cccc2ccc(-c3ccc(-c4ccccc4)cc3)nc12`, for which the TGI in the test with COLO 205 colon came out at 3 µM; with UACC-62 melanoma, 32.2 µM; in the test with SW-620 colon it was 4.74 µM; with NCI-H226 lung it was 30.1 µM; with NCI-H522 lung, 4.33 µM; in the test on HOP-92 NSCLC it was 11.8 µM. In addition, the TGI in the test on HCT-15 colon stood at 4.14 µM; with LOX IMVI melanoma it was 3.09 µM.

Consider `CCN(CC)CCn1[nH]c2c3ccc(=O)cc3sc3c(NCCN)ccc1c32`, for which the TGI in the test with UACC-62 melanoma worked out at 1.48 µM; with SW-620 colon, 4.77 µM; in the test on HOP-92 NSCLC, 3.96 µM; in the test on HCT-15 colon, 16.7 µM; in the test with LOX IMVI melanoma, 1.03 µM.

As to `Cc1ccc(-c2nc([P+](c3ccccc3)(c3ccccc3)c3ccccc3)c(Nc3ccccc3)o2)cc1`, the GI50 is 0.728 µM in the test with MDA-MB-231 breast; 0.995 µM in the test with COLO 205 colon; 0.63 µM with UACC-62 melanoma; 0.446 µM with SW-620 colon; 0.259 µM with NCI-H522 lung; 0.188 µM in the test with HOP-92 NSCLC. Besides, the GI50 with HCT-15 colon was 0.487 µM; in the test with LOX IMVI melanoma it was 0.457 µM. Further, the TGI with MDA-MB-231 breast came to 2.09 µM; in the test with COLO 205 colon, 2.78 µM; with UACC-62 melanoma, 1.93 µM; in the test on SW-620 colon, 1.66 µM; in the test on NCI-H522 lung it was 1.15 µM; in the test with HOP-92 NSCLC, 1.16 µM. Besides, the TGI is 1.81 µM in the test on HCT-15 colon and 1.76 µM in the test on LOX IMVI melanoma.

Turning to `S=C=NCCc1ccccc1`, the TGI in the test with COLO 205 colon worked out at 3.07 µM; with UACC-62 melanoma it was 2.52 µM; in the test with SW-620 colon, 1.08 µM; with NCI-H226 lung it was 2.88 µM; in the test with NCI-H522 lung, 0.58 µM; with HCT-15 colon it was 1.12 µM. Also, the TGI with LOX IMVI melanoma is 0.66 µM.

For `O=C(C/C(CCC(=O)N(Cc1ccccc1)Cc1ccccc1)=N/Nc1ccc([N+](=O)[O-])cc1[N+](=O)[O-])c1ccccc1`, the TGI with COLO 205 colon, in the test with UACC-62 melanoma, in the test on SW-620 colon, in the test with NCI-H226 lung, with NCI-H522 lung and with HOP-92 NSCLC was > 100 µM in each case. For the same compound, the TGI in the test with HCT-15 colon and in the test on LOX IMVI melanoma was > 100 µM each time.

For `c1ccc(P(=C2c3ccccc3-c3ccccc32)(c2ccccc2)c2ccccc2)cc1`, the TGI was found to be 15 µM in the test on COLO 205 colon; 14.1 µM in the test with UACC-62 melanoma; 10.4 µM in the test with SW-620 colon; 4.62 µM with NCI-H522 lung; 7.4 µM in the test on HOP-92 NSCLC; 52.2 µM in the test on HCT-15 colon. This compound registered a TGI in the test with LOX IMVI melanoma of 9.38 µM.

For the compound `CC[N+](C)(CC)CC(C)(C)C(=O)/C=C/c1ccc(/C=C/C(=O)C(C)(C)C[N+](C)(CC)CC)cc1`, the TGI with COLO 205 colon, in the test with UACC-62 melanoma, in the test on SW-620 colon, in the test with NCI-H226 lung, with NCI-H522 lung and with HOP-92 NSCLC was > 100 µM each time. Also, the TGI with HCT-15 colon and in the test on LOX IMVI melanoma was > 100 µM each time.

Consider `CC12CCC3c4cc(Br)c(O)c(Br)c4CCC3C1CCC2O` (centres undefined), for which the TGI in the test with MDA-MB-231 breast stood at 27.4 µM; with COLO 205 colon it was 70.1 µM; in the test on UACC-62 melanoma, 33.1 µM; with SW-620 colon it was 33 µM; with NCI-H226 lung, 34.5 µM; in the test with T-47D breast it was 83.8 µM. For the same compound, the TGI with LOX IMVI melanoma was 63.6 µM.

As to `C#CCN(C(=O)C(F)(F)F)c1ccc(C(=O)c2ccc(N(CC#C)C(=O)C(F)(F)F)cc2)cc1`, the TGI with COLO 205 colon is 92.5 µM; in the test on UACC-62 melanoma it was 54.1 µM; in the test with SW-620 colon, > 100 µM; with NCI-H522 lung, 49.4 µM; in the test with HOP-92 NSCLC, 81 µM; in the test on HCT-15 colon it was 79.9 µM.

Consider `Cc1nc2sccn2c1C(=O)NC(=O)Nc1ccc(Cl)cc1`, for which the TGI was > 100 µM in the test on COLO 205 colon; > 100 µM in the test on UACC-62 melanoma; > 100 µM in the test with SW-620 colon; > 100 µM with NCI-H226 lung; > 100 µM with NCI-H522 lung; 74.3 µM in the test with HOP-92 NSCLC. Moreover, the TGI with HCT-15 colon and in the test with LOX IMVI melanoma was > 100 µM in each case.

In the case of `CCOc1ccc(O)cc1[P+](c1ccccc1)(c1ccccc1)c1ccccc1`, the TGI in the test on COLO 205 colon is 10 µM; with UACC-62 melanoma, 17.8 µM; in the test with NCI-H226 lung, 14.5 µM; in the test on NCI-H522 lung it was 6.39 µM; in the test with LOX IMVI melanoma, 13.6 µM.

In the case of `COC1C2c3cc4c(cc3CC(C#N)(c3ccccc32)N1C(=O)c1ccccc1)OCO4` (centres undefined), the TGI in the test on COLO 205 colon, with UACC-62 melanoma, in the test on SW-620 colon, in the test with NCI-H226 lung, in the test on NCI-H522 lung and in the test on HOP-92 NSCLC was > 100 µM throughout. Besides, the TGI in the test with HCT-15 colon and with LOX IMVI melanoma was > 100 µM in each case.

Turning to `Cc1cc(=O)[nH]c(CNC(=O)c2cccc(C(=O)NCc3cc(=O)[nH]c(C)n3)c2)n1`, the TGI with COLO 205 colon, in the test with UACC-62 melanoma, in the test with SW-620 colon, with NCI-H226 lung, with NCI-H522 lung and in the test on HOP-92 NSCLC was > 100 µM throughout. For the same compound, the TGI in the test on HCT-15 colon and in the test on LOX IMVI melanoma was > 100 µM in each case.

For `COC(=O)/C=c1\s/c(=C\C(=O)OC)c2ccccc12`, the TGI in the test on COLO 205 colon, in the test with UACC-62 melanoma, in the test on SW-620 colon, in the test with NCI-H226 lung, with NCI-H522 lung and with HOP-92 NSCLC was > 100 µM each time. Further, the TGI in the test with HCT-15 colon and with LOX IMVI melanoma was > 100 µM throughout.

Regarding `O=C(CCc1nnc2s/c(=C\c3ccccc3Cl)c(=O)n12)Nc1cc(Cl)ccc1Cl`, the TGI with UACC-62 melanoma, in the test with SW-620 colon, in the test with NCI-H226 lung, in the test with NCI-H522 lung, with HOP-92 NSCLC and with HCT-15 colon was > 100 µM each time. For the same compound, the TGI in the test on LOX IMVI melanoma is > 100 µM.
